From ChEMBL document CHEMBL1135861, “The discovery of novel small molecule non-peptide gonadotropin releasing hormone (GnRH) receptor antagonists” (Bioorg Med Chem Lett, 2002)

Assays:
[1] = biological target: T1, Gonadotropin-releasing hormone receptor (Rattus norvegicus, UniProt P30969); assay: Binding affinity to rat gonadotropin-releasing hormone receptor
T1 sequence (P30969 whole entry): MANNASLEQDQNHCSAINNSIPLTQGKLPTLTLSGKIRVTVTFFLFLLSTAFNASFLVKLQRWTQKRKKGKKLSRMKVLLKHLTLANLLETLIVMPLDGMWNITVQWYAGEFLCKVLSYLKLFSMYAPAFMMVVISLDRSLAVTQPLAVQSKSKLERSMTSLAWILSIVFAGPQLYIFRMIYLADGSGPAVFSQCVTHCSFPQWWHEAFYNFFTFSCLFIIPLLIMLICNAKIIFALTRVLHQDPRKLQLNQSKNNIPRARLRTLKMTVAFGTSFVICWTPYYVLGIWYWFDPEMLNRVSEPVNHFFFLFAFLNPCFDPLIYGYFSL

[2] = biological target: T2, Gonadotropin-releasing hormone receptor (Homo sapiens, UniProt P30968); assay: In vitro binding affinity to human gonadotropin-releasing hormone receptor
T2 sequence (P30968 whole entry): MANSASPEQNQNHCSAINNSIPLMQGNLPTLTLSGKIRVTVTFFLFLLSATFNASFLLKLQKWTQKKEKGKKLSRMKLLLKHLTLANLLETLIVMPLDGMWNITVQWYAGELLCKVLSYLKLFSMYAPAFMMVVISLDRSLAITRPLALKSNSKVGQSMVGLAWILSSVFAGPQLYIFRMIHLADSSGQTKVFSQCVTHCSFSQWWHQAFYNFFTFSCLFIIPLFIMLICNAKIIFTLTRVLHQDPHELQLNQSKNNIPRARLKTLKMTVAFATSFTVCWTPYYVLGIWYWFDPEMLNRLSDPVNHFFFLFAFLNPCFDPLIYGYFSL

| Ki [1] [nM] | Ki [2] [nM] | SMILES |
| --- | --- | --- |
| 730 | 42 | Cc1cc2c(cc1Cc1ccc(C(=O)NCC3CCC(CN)CC3)o1)C(C)(C)CCC2(C)C (stereo not drawn) |
| 385 | 16 | Cc1cc2c(cc1Cc1ccc(C(=O)NC[C@H]3CC[C@H](CNC(=N)N)CC3)o1)C(C)(C)CCC2(C)C |
| 55 | 56 | Cc1cnc(CNC(=O)c2ccc(Cc3cc4c(cc3C)C(C)(C)CCC4(C)C)o2)cn1 |
| 5210 | 700 | Cc1cc2c(cc1Cc1ccc(C(=O)NCC3CCNCC3)o1)C(C)(C)CCC2(C)C |
| 2040 | 220 | Cc1cc2c(cc1Cc1ccc(C(=O)NCC3CCN(C(=N)N)CC3)o1)C(C)(C)CCC2(C)C |
| 560 | 17 | Cc1cc2c(cc1Cc1ccc(C(=O)NCC3CCC(C#N)CC3)o1)C(C)(C)CCC2(C)C (stereo not drawn) |
| 890 | 174 | Cc1cc2c(cc1Cc1ccc(C(=O)NCC3CCCC(CN)C3)o1)C(C)(C)CCC2(C)C (stereo not drawn) |
| 730 | 40 | Cc1cc2c(cc1Cc1ccc(C(=O)NC[C@H]3CC[C@@H](CNC(=N)N)CC3)o1)C(C)(C)CCC2(C)C |
| 270 | 13 | Cc1cc2c(cc1Cc1ccc(C(=O)NC[C@H]3CC[C@H](C(N)=O)CC3)o1)C(C)(C)CCC2(C)C |
| 280 | 140 | Cc1cc2c(cc1Cc1ccc(C(=O)NCc3ccc(CN)cc3)o1)C(C)(C)CCC2(C)C |
| 520 | 40 | Cc1cc2c(cc1Cc1ccc(C(=O)NCC3CCC(CNC(=N)N)CC3)o1)C(C)(C)CCC2(C)C (stereo not drawn) |
| 3000 | 250 | Cc1cc2c(cc1Cc1ccc(C(=O)NC[C@H]3CC[C@H](C(=O)O)CC3)o1)C(C)(C)CCC2(C)C |
| 3260 | 54 | Cc1cc2c(cc1Cc1ccc(C(=O)NCC3CCN(C(=O)OC(C)(C)C)CC3)o1)C(C)(C)CCC2(C)C |
| 1200 | 180 | Cc1cc2c(cc1Cc1ccc(C(=O)NCC3CCC(CNCc4c(C)noc4C)CC3)o1)C(C)(C)CCC2(C)C (stereo not drawn) |
| 60 | 83 | Cc1ccc(CNC(=O)c2ccc(Cc3cc4c(cc3C)C(C)(C)CCC4(C)C)o2)cc1 |
| 865 | 24 | Cc1cc2c(cc1Cc1ccc(C(=O)NCC3CCC(CNCc4cc(=O)[nH]c(=O)[nH]4)CC3)o1)C(C)(C)CCC2(C)C (stereo not drawn) |
| 2730 | 51 | CCOC(=O)[C@H]1CC[C@H](CNC(=O)c2ccc(Cc3cc4c(cc3C)C(C)(C)CCC4(C)C)o2)CC1 |
| 240 | 102 | Cc1cc2c(cc1Cc1ccc(C(=O)NCc3ccccc3)o1)C(C)(C)CCC2(C)C |
| 140 | 79 | Cc1cc2c(cc1Cc1ccc(C(=O)NCc3ccc(CN(C)C)cc3)o1)C(C)(C)CCC2(C)C |
| 830 | 24 | COC(=O)[C@H]1CC[C@H](CNC(=O)c2ccc(Cc3cc4c(cc3C)C(C)(C)CCC4(C)C)o2)CC1 |
| 2720 | 66 | Cc1cc2c(cc1Cc1ccc(C(=O)NCC3CCC(CNC(=O)C(F)(F)F)CC3)o1)C(C)(C)CCC2(C)C (stereo not drawn) |
| 94 | 91 | Cc1cc2c(cc1Cc1ccc(C(=O)NCc3cccc(CN)c3)o1)C(C)(C)CCC2(C)C |
| 1550 | 180 | Cc1cc2c(cc1Cc1ccc(C(=O)NCC3CCCCC3)o1)C(C)(C)CCC2(C)C |
| 250 | 20 | Cc1cc2c(cc1Cc1ccc(C(=O)NCC3CCCC(CNC(=O)C(F)(F)F)C3)o1)C(C)(C)CCC2(C)C (stereo not drawn) |
